This is an account of results in US20220218675A1, “TREATMENT OF OCULAR DISEASE” (PREMARK PHARMA GMBH, priority 2019, published 2022).

For data set [1] the following is noted: slightly soluble in water; cited from earlier work.
Data set [2] can be described thus: Solubility of pimecrolimus in different solvents (HPLC after 24-hour equilibration at 25 °C). The data set is classed as physicochemical. The procedure: FIG. 2: Solubility of pimecrolimus in different solvents. […] Form B refers to the anhydrous, crystalline polymorph B of pimecrolimus that has been used in the manufacture of the composition according to the invention. The legend in the lower table defines the terms used for the categorization of solubility.
The solubility of pimecrolimus in different solvents was determined by HPLC after 24-hour equilibration (vibration) at 25.0+/−0.5° C. After the vibration, the precipitate was separated from the solution, dried and investigated by DSC and by X-ray diffraction pattern.

In data set [3] the test system is animal models of skin inflammation. The following applies: in vivo; cited from earlier work.
The test system of data set [4] is skin. The following applies: cited from earlier work.

On to `OCCc1ccccc1` [Phenyl ethyl alcohol, 2-phenyl-ethan-1-ol], for which the Solubility in water in data set [1] is listed as 2 ml/100 ml H2O.
For `CC[C@@H]1/C=C(\C)C[C@H](C)C[C@H](OC)[C@H]2O[C@@](O)(C(=O)C(=O)N3CCCC[C@H]3C(=O)O[C@H](/C(C)=C/[C@@H]3CC[C@H](Cl)[C@H](OC)C3)[C@H](C)[C@@H](O)CC1=O)[C@H](C)C[C@@H]2OC` [pimecrolimus, (1R,9S,12S,13R,14S,17R,18E,21S,23S,24R,25S,27R)-12-[(1E)-2-{(1R,3R,4S)-4-chloro-3-methoxycyclohexyl}-1-methylvinyl]-17-ethyl-1,14-dihydroxy-23,25-dimethoxy-13,19,21,27-tetramethyl-11,28-dioxa-4-aza-tricyclo[22.3.1.04,9]octacos-18-ene-2,3,10,16-tetraone], in data set [2], the “Solubility in excipients that can be used in semi-solid formulations for dermal and ophthalmic use” value is recorded as “very poor”. Further, the “Solubility in aqueous solutions and water” value in data set [2] (24-hour equilibration at 25.0+/-0.5 °C, HPLC, FIG. 2) was “insoluble”. The “Efficacy in animal models of skin inflammation” value in data set [3] is recorded as “highly effective”. The “Potential for systemic immunosuppression” value in data set [4] (compared with cyclosporin A and tacrolimus) is “lower potential for systemic immunosuppression than cyclosporin A and tacrolimus”. Besides, the “Anti-inflammatory activity in the skin, topical” value in data set [4] (compared with cyclosporin A) is given as “greater anti-inflammatory activity in the skin than cyclosporin A”. Besides, the “Skin atrophy” value in data set [4] (in contrast to steroids) is given as “does not induce skin atrophy”.
